In paper PMC11494653, “Teixobactin “Swapmers” with L Tail Stereochemistry Retain Antibiotic Activity” (The Journal of Organic Chemistry, 2024):
Positions of bridges follow the written chain, without caps; N, C: chain ends. Non-standard residues stand in square brackets, D forms with d. Residues, ends and D or L forms follow the SMILES beside them. Chains are numbered I, II in the order given. NMeF = CN[C@@H](Cc1ccccc1)C(=O)O

Experiments:
Format in all cases: cell-based
[1] = test system: Staphylococcus aureus (MRSA) ATCC 700698; experiment: microbe, parasite or virus in culture; conditions: ATCC 700698, 16 h
Source text: (§1) We determined the MIC values of these teixobactin swapmer prodrugs against the Gram-positive bacteria Bacillus subtilis, Staphylococcus epidermidis, methicillin-susceptible Staphylococcus aureus (MSSA), and methicillin-resistant Staphylococcus aureus (MRSA) in a broth microdilution assay as described previously.[9],[10] We used the antibiotic vancomycin as a positive control and the Gram-negative bacterium Escherichia coli as a negative control. The MIC values for Lys10-teixobactin 1, Lys10-teixobactin prodrug 2, Arg10-teixobactin 6, and Arg10-teixobactin prodrug 7 are shown in Table 1 for comparison with the swapmer analogues.
(§2) We performed minimum inhibitory concentration (MIC) assays as previously described.[9] A concise procedure is detailed below.
(§3) Stock solutions of teixobactin analogues were prepared gravimetrically by dissolving an appropriate amount of peptide in 20 mg/mL sterile DMSO. The stock solutions were stored at −20 °C for subsequent experiments.
(§4) Bacillus subtilis (ATCC 6051), Staphylococcus epidermidis (ATCC 14990), methicillin-susceptible Staphylococcus aureus (MSSA) (ATCC 29213), and Escherichia coli (ATCC 10798) were cultured from glycerol stocks in Mueller-Hinton broth containing 0.002% polysorbate 80 overnight in a shaking incubator at 37 °C. Methicillin-resistant Staphylococcus aureus (MRSA) (ATCC 700698) was cultured from a glycerol stock in brain hearth infusion broth containing 0.002% polysorbate 80 overnight in a shaking incubator at 37 °C. After overnight incubation, each culture was diluted with the appropriate media (containing 0.002% polysorbate 80) to 1 × 10^6 colony-forming units (CFU)/mL as previously described.[12],[15],[16] Briefly, we have previously determined the CFU/mL for each bacterium at OD600 = 0.075 for 200 μL of bacterial culture in a 96-well plate. The OD600 of each overnight culture was determined, and then each culture was diluted to OD600 = 0.075. Cultures were further diluted to achieve 1 × 10^6 CFU/mL solutions.
(§5) Aliquots of the 20 mg/mL peptide stock solutions were diluted to make a 64 μg/mL solution in Mueller-Hinton broth containing 0.002% polysorbate 80 and a 64 μg/mL solution in brain heart infusion broth containing 0.002% polysorbate 80. The solutions were mixed by pipetting to ensure homogeneity. A 200-μL aliquot of a 64 μg/mL solution was transferred to a 96-well plate. 2-fold serial dilutions were made with media containing 0.002% polysorbate 80 across the 96-well plate to achieve a final volume of 100 μL in each well (initial concentrations ranging from 64 to 0.0625 μg/mL). A 100-μL aliquot of a 1 × 10^6 CFU/mL bacterial solution was added to each well in the series, resulting in final bacterial concentrations of 5 × 10^5 CFU/mL in each well. As 100 μL of bacteria were added to each well, the concentration of peptide was also diluted 2-fold (final concentrations ranging from 32 μg/mL to 0.03125 μg/mL). Each plate was covered with a lid and incubated at 37 °C for 16 h. The optical density measurements were measured at 600 nm using a 96-well UV–vis plate reader (MultiSkan GO, Thermo Scientific). The MIC values were taken as the lowest concentration that had no bacterial growth. MIC assays for each compound were performed in triplicate to ensure reproducibility.

[2] = test system: Escherichia coli ATCC 10798; experiment: microbe, parasite or virus in culture; conditions: ATCC 10798, 16 h
Source text: as §1, §2, §3, §4, §5

[3] = test system: Staphylococcus aureus (MSSA) ATCC 29213; experiment: microbe, parasite or virus in culture; conditions: ATCC 29213, 16 h
Source text: as §1, §2, §3, §4, §5

[4] = test system: Staphylococcus epidermidis ATCC 14990; experiment: microbe, parasite or virus in culture; conditions: ATCC 14990, 16 h
Source text: as §1, §2, §3, §4, §5

[5] = test system: Bacillus subtilis ATCC 6051; experiment: microbe, parasite or virus in culture; conditions: ATCC 6051, 16 h
Source text: as §1, §2, §3, §4, §5

all bacteria tested = experiment: MIC broth microdilution assay, summary over all bacteria; conditions: concentration range tested up to 32 μg/mL
Source text: as §1, §2, §3
as §4, with “After overnight incubation, each culture was diluted with the appropriate media (containing 0.002% polysorbate 80) to 1 × 10^6 colony-forming units (CFU)/mL as previously described.[12],[15],[16]” left out, “Cultures were further diluted to achieve 1 × 10^6 CFU/mL solutions.” left out
Aliquots of the 20 mg/mL peptide stock solutions were diluted to make a 64 μg/mL solution in Mueller-Hinton broth containing 0.002% polysorbate 80 and a 64 μg/mL solution in brain heart infusion broth containing 0.002% polysorbate 80. […] The optical density measurements were measured at 600 nm using a 96-well UV–vis plate reader (MultiSkan GO, Thermo Scientific). […]

MIC Staphylococcus aureus (MRSA) ATCC 700698 [1]: >32 µg/mL | MIC Escherichia coli ATCC 10798 [2]: >32 µg/mL | MIC Staphylococcus aureus (MSSA) ATCC 29213 [3]: >32 µg/mL | MIC Staphylococcus epidermidis ATCC 14990 [4]: >32 µg/mL | MIC Bacillus subtilis ATCC 6051 [5]: >32 µg/mL
Compound: CC[C@H](C)[C@H](NC(=O)[C@H](CCC(N)=O)NC(=O)[C@H](Cc1ccccc1)NC)C(=O)N[C@@H](CO)C(=O)N[C@H](C(=O)N[C@@H](CCC(N)=O)C(=O)N[C@H](C(=O)OC[C@H](N)C(=O)N[C@H]1C(=O)N[C@@H](C)C(=O)N[C@@H](CCCNC(=N)N)C(=O)N[C@@H]([C@@H](C)CC)C(=O)O[C@H]1C)[C@@H](C)CC)[C@@H](C)CC [compound 9, N-Me-Phe0,Gln1,Ile4,Gln5,[Ile6-O-Ser7],Arg10-teixobactin] (I: H-[NMeF]QISIQI / II: H-S[dT]ARI; ester I:C-II:1, II:2-II:C)
antibiotic activity in words against all bacteria tested (all bacteria tested): completely inactive
